# Data: ChEMBL document CHEMBL5625182, “Synthesis and antibacterial activities of baulamycin A inspired derivatives” (Eur J Med Chem, 2023)
# Active and inactive are the calls of the source. The rule behind the calls is not given here.
# Columns and labels:
# [1] = target: T1, L-2,3-diaminopropanoate--citrate ligase (Staphylococcus aureus (strain NCTC 8325 / PS 47), UniProt Q2G1M9); experiment: Inhibition of Staphylococcus aureus SbnE incubated for 1 hr by malachite green staining based microplate reader analysis
# T1 sequence (Q2G1M9 whole entry): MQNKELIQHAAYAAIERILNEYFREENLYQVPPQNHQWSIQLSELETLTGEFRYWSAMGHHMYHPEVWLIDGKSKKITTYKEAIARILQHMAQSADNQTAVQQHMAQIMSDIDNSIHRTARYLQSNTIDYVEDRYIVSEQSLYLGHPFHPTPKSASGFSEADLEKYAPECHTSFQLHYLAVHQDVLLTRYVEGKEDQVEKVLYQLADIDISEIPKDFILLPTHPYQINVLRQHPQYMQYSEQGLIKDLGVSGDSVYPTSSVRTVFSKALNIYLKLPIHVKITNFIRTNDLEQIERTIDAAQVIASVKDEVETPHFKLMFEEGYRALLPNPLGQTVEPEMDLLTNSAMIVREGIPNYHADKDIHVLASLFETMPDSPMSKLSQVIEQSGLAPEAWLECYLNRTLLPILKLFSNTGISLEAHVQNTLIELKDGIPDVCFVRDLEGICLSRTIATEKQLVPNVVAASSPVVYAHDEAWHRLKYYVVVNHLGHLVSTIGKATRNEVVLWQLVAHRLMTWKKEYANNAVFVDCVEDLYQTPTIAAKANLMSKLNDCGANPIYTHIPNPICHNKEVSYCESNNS
# [2] = target: T2, L-2,3-diaminopropanoate--citrate ligase (Staphylococcus aureus (strain NCTC 8325 / PS 47)) (UniProt Q2G1M9); experiment: Inhibition of Staphylococcus aureus SbnE at 50 uM incubated for 1 hr by malachite green staining based microplate reader analysis relative to control
# T2 sequence (whole entry): T1 sequence (Q2G1M9 whole entry)
# Staphylococcus aureus [3] = experiment: Antibacterial activity against methicillin resistant Staphylococcus aureus CCARM3167 assessed as inhibition in bacterial growth incubated for 18 hrs by microdilution method; type: functional
# Staphylococcus aureus [4] = experiment: Antibacterial activity against […] Staphylococcus aureus ATCC25923 assessed as inhibition in bacterial growth incubated for 18 hrs by microdilution method; type: functional
# Cell membrane = experiment: Induction of membrane disruption in methicillin resistant Staphylococcus aureus CCARM3167 at MIC incubated for 30 mins PI staining based Flow cytometry
# Staphylococcus aureus [5] = experiment: Antibacterial activity against methicillin resistance Staphylococcus aureus assessed as reduction in biofilm formation at 1/2 times MIC incubated 24 hrs by crystal violet staining based microplate reader analysis; type: functional, organism-based
# Bacillus cereus = experiment: Antibacterial activity against Bacillus cereus ATCC27348 assessed as inhibition of bacterial growth incubated for 18 hrs by microdilution method; type: functional
# [6] = Antibacterial activity against Bacillus subtilis ATCC6633 assessed as inhibition of bacterial growth incubated for 18 hrs by microdilution method; type: functional, Bacillus subtilis […]
# Salmonella typhimurium = experiment: Antibacterial activity against Salmonella typhimurium ATCC14028 assessed as inhibition of bacterial growth incubated for 18 hrs by microdilution method; type: functional, Salmonella enterica subsp. enterica serovar Typhimurium; conditions: Salmonella enterica
# Escherichia coli = experiment: Antibacterial activity against Escherichia coli MC1061 assessed as inhibition of bacterial growth incubated for 18 hrs by microdilution method; type: functional
# Staphylococcus aureus [7] = experiment: Antibacterial activity against quinolone-resistant Staphylococcus aureus CCARM3505 assessed as inhibition of bacterial growth incubated for 18 hrs by microdilution method; type: functional
SMILES,IC50 [1] [µM],inhibition [2] [%],MIC (Staphylococcus aureus [3]) [µg/mL],MIC (Staphylococcus aureus [4]) [µg/mL],Activity (Cell membrane),Activity (Staphylococcus aureus [5]),MIC (Bacillus cereus) [µg/mL],MIC [6] [µg/mL],MIC (Salmonella typhimurium) [µg/mL],MIC (Escherichia coli) [µg/mL],MIC (Staphylococcus aureus [7]) [µg/mL]
CC(C)C[C@H]([C@H](O)CC(O)C#C[C@@H](C)C[C@@H](C)C[C@@H](C)CO)[C@@H](O)c1cc(O)cc(O)c1 (stereo not given in full),6.76,74.7,64,64,–,–,–,–,–,–,–
CC(C)C[C@H]([C@H](O)CCNc1c(Cl)cccc1Cl)[C@@H](O)c1cc(O)cc(O)c1,–,26.8,128,256,–,–,–,–,–,–,–
CC(C)C[C@H]([C@H](O)C[C@H](O)C#C[C@@H](C)C[C@@H](C)C[C@@H](C)COCc1ccccc1)[C@@H](O)c1cc(O)cc(O)c1,11.4,77.5,4,1,Active,Active,–,–,–,–,–
Cc1ccc(NCC[C@H](O)[C@@H](CC(C)C)[C@@H](O)c2cc(O)cc(O)c2)c(Cl)c1,18.9,54.8,64,64,–,–,–,–,–,–,–
C=CC[C@@H](O)[C@@H](CC(C)C)[C@@H](O)c1cc(O)cc(O)c1,8.2,96.8,> 256,> 256,–,–,–,–,–,–,–
CCC(=O)[C@H](C)C[C@H](C)C[C@H](C)CC[C@@H](O)C[C@@H](O)[C@@H](CC(C)C)[C@@H](O)c1cc(O)cc(O)c1,14.4,61.2,256,256,Active,–,256,> 256,> 256,64,64
CC(C)C[C@H]([C@H](O)CCO)[C@@H](O)c1cc(O)cc(O)c1,–,28.3,> 256,> 256,–,–,–,–,–,–,–
"C[C@@H](CO)C[C@H](C)C[C@H](C)C#CC(O)CC(O)C[C@@H](O)c1cc(O)cc(O)c1 (single isomer, unassigned)",–,6.92,128,128,–,–,–,–,–,–,–
CC(C)C[C@@H]([C@@H](O)C[C@H](O)CC[C@@H](C)C[C@H](C)C[C@@H](C)CO)[C@@H](O)c1cc(O)cc(O)c1,28.5,59.1,> 256,> 256,–,–,–,–,–,–,–
CC(C)C[C@H]([C@H](O)CCNc1ccc(O)cc1)[C@@H](O)c1cc(O)cc(O)c1,–,8.18,> 256,64,–,–,–,–,–,–,–
CCC(=O)[C@@H](C)C[C@@H](C)C[C@@H](C)CCCC[C@@H](O)[C@@H](CC(C)C)[C@@H](O)c1cc(O)cc(O)c1,16.4,81.5,4,8,–,–,–,–,–,–,–
Cc1ccc([N+](=O)[O-])cc1NCC[C@@H](O)[C@@H](CC(C)C)[C@@H](O)c1cc(O)cc(O)c1,–,32,64,32,–,–,–,–,–,–,–
CC(C)C[C@H]([C@H](O)CCNc1cccc(C(F)(F)F)c1)[C@@H](O)c1cc(O)cc(O)c1,6.12,71.1,16,8,Active,Active,8,64,> 256,> 256,8
CCn1cc(C(=O)O)c(=O)c2cc(F)c(N3CCNCC3)cc21 [NORFLOXACIN],–,16.8,4,> 256,–,–,2,4,2,2,> 256
"C[C@@H](COCc1ccccc1)C[C@H](C)C[C@H](C)C#CC(O)CC(O)C[C@@H](O)c1cc(O)cc(O)c1 (single isomer, unassigned)",–,33.6,64,64,–,–,–,–,–,–,–
CC(C)C[C@@H]([C@H](O)CCCC[C@@H](C)C[C@H](C)C[C@@H](C)CO)[C@@H](O)c1cc(O)cc(O)c1,10.5,79.4,> 256,> 256,–,–,–,–,–,–,–
CC(C)C[C@@H]([C@H](O)C[C@H](O)CC[C@@H](C)C[C@H](C)C[C@@H](C)CO)[C@@H](O)c1cc(O)cc(O)c1,–,31.1,> 256,> 256,–,–,–,–,–,–,–
CC(C)C[C@H]([C@H](O)CCNc1ccccn1)[C@@H](O)c1cc(O)cc(O)c1,–,36.4,> 256,> 256,–,–,–,–,–,–,–
CC(C)C[C@@H]([C@H](O)CCCCCCCCCCO)[C@@H](O)c1cc(O)cc(O)c1,–,19.8,> 256,> 256,–,–,–,–,–,–,–

SMILES,IC50 [1] [µM],inhibition [2] [%],MIC (Staphylococcus aureus [3]) [µg/mL],MIC (Staphylococcus aureus [4]) [µg/mL],Activity (Cell membrane),Activity (Staphylococcus aureus [5]),MIC (Bacillus cereus) [µg/mL],MIC [6] [µg/mL],MIC (Salmonella typhimurium) [µg/mL],MIC (Escherichia coli) [µg/mL],MIC (Staphylococcus aureus [7]) [µg/mL]
CC(C)C[C@H]([C@H](O)CCNc1cccc([N+](=O)[O-])c1)[C@@H](O)c1cc(O)cc(O)c1,–,5.19,256,64,–,–,–,–,–,–,–
Cc1onc(-c2ccccc2)c1C(=O)N[C@@H]1C(=O)N2[C@@H]1SC(C)(C)[C@@H]2C(=O)O [OXACILLIN],–,10.2,> 256,0.25,–,–,32,8,64,64,> 256
CC(C)C[C@H]([C@H](O)CCNc1ccccc1)[C@@H](O)c1cc(O)cc(O)c1,18.2,75.1,8,4,–,–,–,–,–,–,–
CC(C)C[C@H]([C@H](O)CCNCc1cccc([N+](=O)[O-])c1)[C@@H](O)c1cc(O)cc(O)c1,92.5,50.8,> 256,> 256,–,–,–,–,–,–,–
CC(C)C[C@@H]([C@H](O)CCNCc1ccccc1)[C@@H](O)c1cc(O)cc(O)c1,–,5.63,> 256,> 256,–,–,–,–,–,–,–
CC(C)C[C@H]([C@H](O)CCNc1ccccc1O)[C@@H](O)c1cc(O)cc(O)c1,–,4.87,64,64,–,–,–,–,–,–,–
CCN(CC[C@@H](O)[C@@H](CC(C)C)[C@@H](O)c1cc(O)cc(O)c1)Cc1ccccc1,–,5.19,16,16,–,–,–,–,–,–,–
C[C@@H](COCc1ccccc1)C[C@H](C)C[C@H](C)C#CC(O)c1cc(O)cc(O)c1 (stereo not given in full),–,34.8,4,2,–,–,–,–,–,–,–
CC(C)C[C@H]([C@H](O)CCNc1ccc(Cl)cc1Cl)[C@@H](O)c1cc(O)cc(O)c1,–,41.8,4,8,–,–,–,–,–,–,–
CC(C)C[C@H]([C@H](O)CCNCc1ccco1)[C@@H](O)c1cc(O)cc(O)c1,–,34.5,> 256,> 256,–,–,–,–,–,–,–
C=CC[C@@H](O)[C@H](CC(C)C)[C@@H](O)c1cc(O)cc(O)c1,–,39.5,> 256,> 256,–,–,–,–,–,–,–
CC(C)C[C@H]([C@H](O)CCNc1ccn(C)n1)[C@@H](O)c1cc(O)cc(O)c1,–,48.2,128,128,–,–,–,–,–,–,–
CCC(O)[C@H](C)C[C@H](C)C[C@H](C)CC[C@@H](O)C[C@@H](O)[C@@H](CC(C)C)[C@@H](O)c1cc(O)cc(O)c1 (stereo not given in full),17.1,58.7,32,32,–,–,–,–,–,–,–
CCC[C@@H](O)[C@@H](CC(C)C)[C@@H](O)c1cc(O)cc(O)c1,–,25.6,> 256,> 256,–,–,–,–,–,–,–
CC(C)C[C@H]([C@H](O)C[C@H](O)C#CCCCCCCOCc1ccccc1)[C@@H](O)c1cc(O)cc(O)c1,10.2,81.9,128,128,Active,–,64,> 256,> 256,> 256,128
CC(C)C[C@@H]([C@H](O)C[C@H](O)CCCCCCCCO)[C@@H](O)c1cc(O)cc(O)c1,–,38.4,> 256,> 256,–,–,–,–,–,–,–
CC(C)C[C@@H]([C@H](O)C[C@H](O)C#C[C@@H](C)C[C@H](C)C[C@@H](C)COCc1ccccc1)[C@@H](O)c1cc(O)cc(O)c1,11.8,76.8,64,64,–,–,–,–,–,–,–
CC(C)C[C@H]([C@H](O)CCNc1cc(Cl)c(F)cc1[N+](=O)[O-])[C@@H](O)c1cc(O)cc(O)c1,–,6.49,256,128,–,–,–,–,–,–,–
CC(C)C[C@@H]([C@H](O)C[C@H](O)C#CCCCCCCOCc1ccccc1)[C@@H](O)c1cc(O)cc(O)c1,7.16,97.1,128,128,–,–,–,–,–,–,–
